# Assay results as given in patent publication US5245034A, “Compound having vessel smooth muscle relaxation activity” (Hidaka; Kiroyoshi, priority 1988, dated 1993).
# System: superior mesenteric artery (contracted by potassium chloride)
# Experiment: Vessel Smooth Muscle Relaxation Action (V.R.)
# Assay type: cell-based, rabbit
# Conditions: Oryctolagus cuniculus; concentration relaxing KCl-contracted strain to 50%; cumulative administration; read-out: V.R. (ED50)
# Source text: The specimen was suspended by loading a strain in Krebs-Henseleit solution through which an oxygen gas containing 5% carbon dioxide was bubbled. The specimen was contracted by adding potassium chloride to maintain a predetermined strain. Thereafter, a test compound was cumulatively administrated.
row,Structure (SMILES),EC50
1,"O=S(=O)(NC(Cc1cnc[nH]1)CN1CCN(c2ccccc2)CC1)c1cccc2cnccc12 (stereo not drawn) [Example 2, N-[1-(Imidazol-4(5)-Yl-Methyl)-2-(4-Phenylpiperazinyl)Ethyl]-5-IsoquinolineSulfonamide]",47 µM
2,"CN(C(Cc1ccc(O)c(O)c1)CN1CCN(c2ccccc2)CC1)S(=O)(=O)c1cccc2cnccc12 (stereo not drawn) [Example 7, N-{1-[(3,4-Dihydroxyphenyl)Methyl]-2-(4-Phenylpiperazinyl)Ethyl}-N-Methyl-Isoquinoline Sulfonamide]",1.6 µM
3,"O=S(=O)(NC(Cc1ccc(O)c(O)c1)CN1CCN(c2ccccc2)CC1)c1cccc2cnccc12 (stereo not drawn) [Example 8, N-{1-[(3,4-Dihydroxyphenyl)Methyl]-2-(4-Phenylpiperazinyl)Ethyl}-5-Isoquinoline Sulfonamide]",1.8 µM
4,"O=S(=O)(c1cccc2cnccc12)N1Cc2cc(O)c(O)cc2CC1CN1CCN(c2ccccc2)CC1 (stereo not drawn) [Example 10, 6,7-Dihydroxy-2-(5-Isoquinolinesulfonyl)-3-[(4-Phenylpiperazinyl)methyl]-1,2,3,4-tetrahydroisoquinoline]",6.4 µM
5,"Cc1ccc(S(=O)(=O)Nc2ccc(C[C@@H](C(=O)N3CCN(c4ccccc4)CC3)N(C)S(=O)(=O)c3cccc4cnccc34)cc2)cc1 [Example 22, 1-[N-(5-isoquinolinesulfonyl)-N-methyl-p-(p-toluenesulfonylamino)phenylalanyl]-4-phenylpiperazine]",1.8 µM
6,"O=C(CCc1ccccc1)N1CCN(C(=O)[C@H](Cc2ccc(O)cc2)NS(=O)(=O)c2cccc3cnccc23)CC1 [Example 31, 1-[N-(5-isoquinolinesulfonyl)tyrosyl]-4-(3-phenylpropionyl)piperazine]",24 ± 7 µM
7,"O=C([C@H](Cc1ccc(O)cc1)NS(=O)(=O)c1cccc2cnccc12)N1CCN(CCCc2ccccc2)CC1 [Example 33, 1-[N-(5-Isoquinolinesulfonyl)Tyrosyl]-4-(3-Phenylpropyl)Piperazine]",21 µM
8,O=S(=O)(NC(Cc1ccc(OS(=O)(=O)c2cccc3cnccc23)cc1)CN1CCN(c2ccccc2)CC1)c1cccc2cnccc12 (stereo not drawn) [Example 34],1.8 µM
9,CN(C(Cc1ccc(OS(=O)(=O)c2cccc3cnccc23)cc1)CN1CCN(c2ccccc2)CC1)S(=O)(=O)c1cccc2cnccc12 (stereo not drawn) [Example 35],6.9 µM
10,"O=S(=O)(NC(Cc1ccc(O)cc1)CN1CCN(c2ccccc2)CC1)c1cccc2cnccc12 (stereo not drawn) [Example 37, N-[1-(p-hydroxybenzyl)-2-(4-phenylpiperazinyl)ethyl]-5-isoquinolinesulfonamide]",4.4 µM
11,"COc1ccc(CC(CN2CCN(c3ccccc3)CC2)N(C)S(=O)(=O)c2cccc3cnccc23)cc1 (stereo not drawn) [Example 38, N-[1-(P-Methoxybenzyl)-2-(4-Phenylpiperazinyl)Ethyl]-N-Methyl-5-Isoquinolinesulfonamide]",8.1 µM
12,"CN(C(Cc1ccc(O)cc1)CN1CCN(c2ncccn2)CC1)S(=O)(=O)c1cccc2cnccc12 (stereo not drawn) [Example 42, N-{1-(p-hydroxybenzyl)-2-[4-(2-pyrimidyl)piperazinyl]ethyl}-N-methyl-5-isoquinolinesulfonamide]",6.2 µM
13,"CN(C(Cc1ccccc1)CN1CCN(c2ccccc2)CC1)S(=O)(=O)c1cccc2cnccc12 (stereo not drawn) [Example 43, N-[1-benzyl-2-(4-phenylpiperazinyl)ethyl]-N-methyl-5-isoquinolinesulfonamide]",0.36 µM
14,"CN(C(Cc1ccc(OS(=O)(=O)c2cccc3cnccc23)cc1)CN1CCN(c2ccccn2)CC1)S(=O)(=O)c1cccc2cnccc12 (stereo not drawn) [Example 45, N-{1-[p-(5-isoquinolinesulfonyloxy)benzyl]-2-[4-(2-pyridyl)piperazinyl]ethyl}-N-methyl-5-isoquinolinesulfonamide]",7.5 µM
15,"CN(C(Cc1ccc(O)cc1)CN1CCN(c2ccccn2)CC1)S(=O)(=O)c1cccc2cnccc12 (stereo not drawn) [Example 46, N-{1-(p-hydroxybenzyl)-2-[4-(2-pyridyl)piperazinyl]ethyl}-N-methyl-5-isoquinolinesulfonamide]",4 µM
16,"CN(C(Cc1ccc(O)cc1)CN1CCN(c2cccc(Cl)c2)CC1)S(=O)(=O)c1cccc2cnccc12 (stereo not drawn) [Example 47, N-{2-[4-(m-chlorophenyl)piperazinyl]-1-(p-hydroxybenzyl)ethyl}-N-methyl-5-isoquinolinesulfonamide]",0.39 µM
17,CN(C(Cc1ccc(OS(=O)(=O)c2cccc3cnccc23)cc1)CN1CCN(c2ccc(F)cc2)CC1)S(=O)(=O)c1cccc2cnccc12 (stereo not drawn) [Example 49],0.92 µM
18,"Cc1cccc(N2CCN(CC(Cc3ccc(O)cc3)N(C)S(=O)(=O)c3cccc4cnccc34)CC2)c1 (stereo not drawn) [Example 51, N-{1-(p-hydroxybenzyl)-2-[4-(m-methylphenyl)piperazinyl]ethyl}-N-methyl-5-isoquinolinesulfonamide]",0.17 µM
19,COc1ccc(N2CCN(CC(Cc3ccc(OS(=O)(=O)c4cccc5cnccc45)cc3)NS(=O)(=O)c3cccc4cnccc34)CC2)cc1 (stereo not drawn) [Example 52],9.9 µM
20,"COc1ccc(N2CCN(CC(Cc3ccc(OS(=O)(=O)c4cccc5cnccc45)cc3)N(C)S(=O)(=O)c3cccc4cnccc34)CC2)cc1 (stereo not drawn) [Example 53, N-{1-[p-(5-isoquinolinesulfonyloxy)benzyl]-2-[4-(p-methoxyphenyl)piperazinyl]ethyl}-N-methyl-5-isoquinolinesulfonamide]",1.3 µM
21,"COc1ccc(N2CCN(CC(Cc3ccc(O)cc3)N(C)S(=O)(=O)c3cccc4cnccc34)CC2)cc1 (stereo not drawn) [Example 54, N-{1-(p-hydroxybenzyl)-2-[4-(p-methoxyphenyl)piperazinyl]ethyl}-N-methyl-5-isoquinolinesulfonamide]",1.7 µM
22,"COc1ccc(N2CCN(CC(Cc3ccc(O)cc3)NS(=O)(=O)c3cccc4cnccc34)CC2)cc1 (stereo not drawn) [Example 55, N-{1-(p-hydroxybenzyl)-2-[4-(p-methoxyphenyl)piperazinyl]ethyl}-5-isoquinolinesulfonamide]",8.6 µM
23,"COc1ccccc1N1CCN(CC(Cc2ccc(O)cc2)N(C)S(=O)(=O)c2cccc3cnccc23)CC1 (stereo not drawn) [Example 56, N-{1-(p-hydroxybenzyl)-2-[4-(2-methoxyphenyl)piperazinyl]ethyl}-N-methyl-5-isoquinolinesulfonamide]",1.2 µM
24,"CN(C(Cc1ccc(O)cc1)CN1CCN(S(=O)(=O)c2ccccc2)CC1)S(=O)(=O)c1cccc2cnccc12 (stereo not drawn) [Example 62, N-{2-[(4-Benzenesulfonyl)Piperazinyl)-1-(P-Hydroxybenzyl)-Ethyl}-N-Methyl-5-Isoquinolinesulfonamide]",2.3 µM
25,"CN(C(Cc1ccc(O)cc1)CN1CCN(C(=O)OCc2ccccc2)CC1)S(=O)(=O)c1cccc2cnccc12 (stereo not drawn) [Example 67, N-[2-(4-benzyloxycarbonylpiperazinyl)-1-(p-hydroxybenzyl)ethyl]-N-methyl-5-isoquinolinesulfonamide]",2.2 µM

# The remaining lines, values ahead:
row,EC50,Structure (SMILES)
1,4 µM,"COc1ccc(CC(CN2CCN(C(=O)OCc3ccccc3)CC2)N(C)S(=O)(=O)c2cccc3cnccc23)cc1 (stereo not drawn) [Example 72, N-[2-(4-benzyloxycarbonylpiperazinyl)-1-(p-methoxybenzyl)ethyl]-N-methyl-5-isoquinolinesulfonamide]"
2,14 µM,"COc1ccc(CC(CN2CCN(C(=O)OCc3ccccc3)CC2)NS(=O)(=O)c2cccc3cnccc23)cc1 (stereo not drawn) [Example 73, N-[2-(4-benzyloxycarbonylpiperazinyl)-1-(p-methoxybenzyl)ethyl]-5-isoquinolinesulfonamide]"
3,9.7 µM,"CN(C(Cc1ccc(O)cc1)CN1CCN(C(=O)c2ccccc2)CC1)S(=O)(=O)c1cccc2cnccc12 (stereo not drawn) [Example 75, N-[2-(4-Benzoylpiperazinyl)-1-(P-Hydroxybenzyl)Ethyl]-N-Methyl-5-Isoquinolinesulfonamide]"
4,2.9 µM,"CN(C(Cc1ccc(O)cc1)CN1CCN(S(=O)(=O)Cc2ccccc2)CC1)S(=O)(=O)c1cccc2cnccc12 (stereo not drawn) [Example 76, N-[2-(4-benzylsulfonylpiperazinyl)-1-(p-hydroxybenzyl)ethyl]-N-methyl-5-isoquinolinesulfonamide]"
5,1.4 µM,"CN(C(Cc1ccc(O)cc1)CN1CCN(S(=O)(=O)c2cccc3cnccc23)CC1)S(=O)(=O)c1cccc2cnccc12 (stereo not drawn) [Example 77, N-{1-(p-hydroxybenzyl]-2-[4-(5-isoquinolinesulfonyl)piperazinyl]ethyl}-N-methyl-5-isoquinolinesulfonamide]"
6,1.8 µM,"CN(C(Cc1ccc(OS(=O)(=O)c2cccc3ccccc23)cc1)CN1CCN(C(=O)OCc2ccccc2)CC1)S(=O)(=O)c1cccc2ccccc12 (stereo not drawn) [Example 78, N-{2-(4-benzyloxycarbonylpiperazinyl)-1-[p-(α-naphtharenesulfonyloxy)benzyl]ethyl}-N-methyl-α-naphtharenesulfonamide]"
7,5.5 µM,"CN(C(Cc1ccc(O)cc1)CN1CCN(C(=O)OCc2ccccc2)CC1)S(=O)(=O)c1cccc2ccccc12 (stereo not drawn) [Example 79, N-[2-(4-benzyloxycarbonylpiperazinyl)-1-(p-hydroxybenzyl)ethyl]-N-methyl-α-naphtharenesulfonamide]"
8,1.7 µM,"CN(C(Cc1ccc(OS(=O)(=O)c2cccc3cnccc23)cc1)CN1CCCN(c2ccccc2)CC1)S(=O)(=O)c1cccc2cnccc12 (stereo not drawn) [Example 81, N-{1-[p-(5-isoquinolinesulfonyloxy)benzyl]-2-(4-phenylhomopiperazinyl)ethyl}-N-methyl-5-isoquinolinesulfonamide]"
9,43 µM,Cc1ccc(COC2CCN(CC(Cc3ccc(OS(=O)(=O)c4cccc5cnccc45)cc3)NS(=O)(=O)c3cccc4cnccc34)CC2)cc1 (stereo not drawn) [Example 84]
10,22 µM,"CN(C(Cc1ccc(O)cc1)CN1CCC(NCc2ccccc2)CC1)S(=O)(=O)c1cccc2cnccc12 (stereo not drawn) [Example 98, N-{2-[4-(N-benzylamino)piperidino]-1-(p-hydroxybenzyl)ethyl}-N-methyl-5-isoquinolinesulfonamide]"

# Same assay, conditions: concentration relaxing KCl-contracted strain to 50%; cumulative administration; read-out: V.R. (ED50)
row,EC50,Structure (SMILES)
1,14 µM,"O=S(=O)(NC(Cc1ccc(O)cc1)CN1CCN(CCCc2ccccc2)CC1)c1cccc2cnccc12 (stereo not drawn) [Example 69, N-{1-(p-hydroxybenzyl)-2-[4-(3-phenylpropyl)piperazinyl]ethyl}-5-isoquinolinesulfonamide]"
